Results reported in article PMC9782877 (Molecules, 2022).
Values joined by “and” are separate entries in the source; they are usually repeats but may differ in a detail not shown here. Equal values may be shown once.

Experiments:
SARS-CoV-2 = experiment: microbe, parasite or virus in culture; type: cell-based; details: for SI, Selectivity Index (ratio between CC50 and IC50): Caco-2 cells, SARS-CoV-2; for IC50: Severe acute respiratory syndrome coronavirus 2, Caco-2, 72 h, read-out: IC50, half-maximal compound concentration inhibiting 50% of the SARS-CoV-2 replication
in vitro [1] = details: human
[2] = Parallel artificial membrane permeability assay (PAMPA); type: in vitro ADME; details: pH 7.4, 5 h; for Papp at 5 h, 0.5 mM: room temperature, read-out: Apparent Permeability (Papp)
Method: The trend appreciated in terms of solubility was confirmed by results obtained from permeability studies. In fact, parallel artificial membrane permeability assay (PAMPA) underlined how the low solubility of compounds 6 and 7 was accompanied by a major tendency of these derivatives to interact with the lipidic artificial membrane where they probably remained entrapped.
In order to assess the apparent permeability of selected compounds, a stock solution in DMSO of each derivative was prepared at the final concentration of 1 mM. By diluting the stocks 1:1 v/v with phosphate buffer (PBS 25 mM, pH 7.4), donor solutions were made. To mimic the gastrointestinal (GI) phospholipidic bilayer, 10 µL of a 1% w/v dodecane solution of phosphatidylcholine (PC) was used to coat filters. The acceptor solution, made of 1:1 v/v DMSO/PBS, was added to each well (300 µL), while the donor solution (150 µL) was added to each well of the filter plate. The sandwich plates were assembled and incubated for 5 h at room temperature. At the time point, the plates were separated, and the amount of compound passed through the phospholipid bilayer was measured by UV/LC-MS. Finally, apparent permeability (Papp) and membrane retention (MR%) were calculated as previously reported by us.

[3] = Aqueous solubility in Mill-Q H2O; details: water, thermodynamic from solid
Method: Chromatographic separations were obtained using a Phenomenex Kinetex C18-100 Å column (150 × 4.6 mm) with 5 µm particle size and gradient elution with a binary solution; (eluent A: H2O acidified with formic acid (FA) 0.1% v/v, eluent B: ACN/MeOH 1:1 v/v) at room temperature. The analysis started with 5% of B (from t = 0 to t = 1 min), then B was increased to 95% (from t = 1 to t = 10 min), then kept at 95% (from t = 10 to t = 15 min) and finally returned to 5% of eluent A in one minute. The instrument worked in positive mode and the UV detector operated at 254 nm.
One mg of each compound was added with 1 mL of Mill-Q H2O. The samples were maintained under shaking at room temperature (RT) overnight. The suspensions were filtered using a 0.45 µm nylon filter (Acrodisc), and the amount of solubilized compound was determined with the HPLC-UV-MS method above reported. The quantification of the solubilized compound was created with the appropriate calibration curve realized with stock solutions in DMSO (0.1–100 µg/mL); the limit of detection (LOD) was quantified at 0.1 µg/mL.

[4] = test system: peripheral blood mononuclear cells (PBMC); parameters: method as in PMID 21698775; details: read-out: CC50, cytotoxicity; cited from earlier work
HIV = test system: HIV; parameters: method as in PMID 21698775; details: PBMC; read-out: EC50, antiretroviral effect; cited from earlier work
Human plasma stability = type: in vitro ADME; details: 100 µM
Method: Finally, further studies were performed in order to investigate the stability in the presence of human plasma. All compounds were incubated at the fixed concentration of 100 µM in plasma for 24 h.
A DMSO stock solution of each compound was incubated in triplicate in the presence of human plasma and HEPES buffer (25 mM, 140 mM NaCl, pH 7.4) at the final concentration of 100 µM at 37 °C under shaking. At the selected time point of 0 and 24 h, 50 µL of the mixture was collected, treated with 1.0 mL of cold ACN, and centrifuged at 5000 rpm for 10 min. The supernatant was collected, and the amount of unmodified compound was quantified with the HLPC-UV/MS method above reported. Calculations of modified compounds were made using time zero as 100% of the unmodified compound.

in vitro [5] = details: human; remark: listed apart in the source
human helicase DDX3X = human helicase DDX3X (Homo sapiens, UniProt O00571); experiment: DDX3X ATPase inhibition, ADP-Glo assay; type: biochemical
Chain of human helicase DDX3X (O00571 whole entry): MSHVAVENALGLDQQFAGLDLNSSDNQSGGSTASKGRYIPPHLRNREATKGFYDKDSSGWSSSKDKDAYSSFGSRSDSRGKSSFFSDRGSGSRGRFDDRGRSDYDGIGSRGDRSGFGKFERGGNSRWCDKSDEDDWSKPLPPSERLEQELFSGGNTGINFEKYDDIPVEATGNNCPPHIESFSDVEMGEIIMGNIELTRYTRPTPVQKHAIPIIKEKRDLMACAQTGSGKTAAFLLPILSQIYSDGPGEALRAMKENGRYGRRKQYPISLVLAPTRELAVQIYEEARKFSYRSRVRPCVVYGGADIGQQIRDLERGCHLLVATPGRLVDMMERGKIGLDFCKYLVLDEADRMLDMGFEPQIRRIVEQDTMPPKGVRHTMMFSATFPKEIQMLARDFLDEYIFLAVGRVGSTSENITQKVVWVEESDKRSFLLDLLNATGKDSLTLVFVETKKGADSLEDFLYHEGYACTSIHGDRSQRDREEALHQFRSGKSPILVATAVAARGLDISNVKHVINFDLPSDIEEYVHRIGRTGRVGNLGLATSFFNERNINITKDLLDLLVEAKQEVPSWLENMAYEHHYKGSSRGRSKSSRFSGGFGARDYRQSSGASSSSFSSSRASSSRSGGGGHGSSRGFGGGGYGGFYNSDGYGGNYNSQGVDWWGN
Method: For the more promising compound, derivative 10a, the inhibition of the ATPase activity of the human helicase DDX3X was evaluated. Different concentrations of the compound were incubated with 1 µM of purified recombinant DDX3X and ATPase activity was determined with the ADP-glo assay.
The ATPase enzymatic activity of DDX3X was determined by the ADP-Glo kit (Promega, MD, USA). The reaction was performed in ATPase buffer (20 mM Tris–HCl pH 8, 2 mM DTT, 70 mM KCl, 2 mM MgCl2, 5% DMSO) pre-incubating 1 µM DDX3X with different concentrations of inhibitor for 10 min at 25 °C. ATPase reaction started with the addition of 1 mM ATP. After 30 min of incubation at 25 °C, the assay was conducted following the manufacturer’s instructions. The ATPase enzymatic activity was analyzed using a 384-wells plate and the GloMax Discover Microplate Reader (Promega, MD, USA) and expressed as a percentage of inhibition calculated from the light units obtained.

[6] = test system: HIV-1 wild-type reference strain NL4-3; experiment: Anti-HIV-1 BiCycle Assay (H9 cells, then TZM-bl reporter cells); type: cell-based; details: Human immunodeficiency virus 1, NL43, H9, read-out: IC50, half-maximal compound concentration inhibiting the 50% of HIV-1 replication

Row | SMILES | SI, Selectivity Index (ratio between CC50 and IC50) (SARS-CoV-2) | IC50 (SARS-CoV-2) | CC50 (in vitro [1]) | Membrane retention (MR) [2] | Papp at 5 h, 0.5 mM [2] | solubility [3] | CC50 [4] | EC50 (HIV) | Plasma Stability % ± SD (Human plasma stability; 24 h, 37 °C) | Plasma Stability % ± SD (Human plasma stability; time 0 h (set as 100%)) | CC50 (in vitro [5]) | IC50 (human helicase DDX3X) | IC50 [6]
1 | CCC(CC)COC(=O)[C@H](C)N[P@](=O)(OC[C@H]1O[C@@](C#N)(c2ccc3c(N)ncnn23)[C@H](O)[C@@H]1O)Oc1ccccc1 [Remdesivir, reference compound] | 1356 | 0.07 ± 0.04 µM | 94.9 µM | – | – | – | – | – | – | – | – | – | –
2 | Oc1ccccc1C=NNc1nc(Nc2ccc(F)cc2)nc(N2CCOCC2)n1 [compound 6] | – | – | 3 µM | 28.7% | 4.74 ×10⁻⁶ cm/s | < 0.1 µg/mL | 10 µM | 2.5 µM | 98.78 ± 4.05% | 100.00 ± 0.19% | – | – | –
3 | Oc1ccccc1C=NNc1nc(Nc2ccc(F)cc2)nc(Nc2ccc(F)cc2)n1 [compound 7] | – | – | 0.8 µM | 15.5% | 4.58 ×10⁻⁶ cm/s | < 0.1 µg/mL | 8 µM | 2 µM | 99.56 ± 3.78% | 100.00 ± 0.28% | – | – | –
4 | Cc1cccc(/C=N/Nc2nc(N3CCOCC3)nc(N3CCOCC3)n2)c1 [10c] | – | – | – | 4.9% | 9.78 ×10⁻⁶ cm/s | 4.5 µg/mL and 11.7 µM | – | – | 99.52 ± 3.45% | 100.00 ± 0.16% | 74 µM | – | –
5 | Oc1ccccc1/C=N/Nc1nc(N2CCOCC2)nc(N2CCOCC2)n1 [10a] | >33.1 | 12.1 µM | – | 4.3% | 7.89 ×10⁻⁶ cm/s | 3.23 µg/mL and 8.51 µM | – | – | 98.48 ± 4.02% | 100.00 ± 0.28% | – | 6.6 µM | –
6 | CC(=O)Nc1ccc(/C=N/Nc2nc(N3CCOCC3)nc(N3CCOCC3)n2)cc1 [10b] | – | – | – | 9.8% | 9.7 ×10⁻⁶ cm/s | 3.46 µg/mL and 8.13 µM | – | – | 98.41 ± 4.69% | 100.00 ± 0.24% | – | – | –
7 | Cc1nnc(C(=O)NC(C)(C)c2nc(C(=O)NCc3ccc(F)cc3)c(O)c(=O)n2C)o1 [Raltegravir, reference compound] | – | – | – | – | – | – | – | – | – | – | > 100 µM | – | 0.0028 ± 0.0017 µM
